We go through three substances from patent publication US8796415B2, “Inhibitors of guanine exchange factors and their use as anticancer drugs” (Centre National de la Recherche Scientifique, priority 2009, dated 2014).

Ends that are not written are not given here.

One assay deals with PC12 cells. The note with it: Schmidt et al., 2002; cited from earlier work.
A further assay deals with T1, p63RhoGEF (Homo sapiens, UniProt Q86VW2).
T1 construct: GST-p63RhoGEF (DH domain) and GST-RhoG were purified as described previously; GST (N); made in house
Conditions: shown previously (Schmidt et al., 2002 and unpublished results); cited from earlier work.

The target of the next assay is T2, p115RhoGEF (Homo sapiens, UniProt Q92888).
T2 construct: GST (N); made in house; host or cells: baculovirus system
T2 sequence (Q92888 1-912): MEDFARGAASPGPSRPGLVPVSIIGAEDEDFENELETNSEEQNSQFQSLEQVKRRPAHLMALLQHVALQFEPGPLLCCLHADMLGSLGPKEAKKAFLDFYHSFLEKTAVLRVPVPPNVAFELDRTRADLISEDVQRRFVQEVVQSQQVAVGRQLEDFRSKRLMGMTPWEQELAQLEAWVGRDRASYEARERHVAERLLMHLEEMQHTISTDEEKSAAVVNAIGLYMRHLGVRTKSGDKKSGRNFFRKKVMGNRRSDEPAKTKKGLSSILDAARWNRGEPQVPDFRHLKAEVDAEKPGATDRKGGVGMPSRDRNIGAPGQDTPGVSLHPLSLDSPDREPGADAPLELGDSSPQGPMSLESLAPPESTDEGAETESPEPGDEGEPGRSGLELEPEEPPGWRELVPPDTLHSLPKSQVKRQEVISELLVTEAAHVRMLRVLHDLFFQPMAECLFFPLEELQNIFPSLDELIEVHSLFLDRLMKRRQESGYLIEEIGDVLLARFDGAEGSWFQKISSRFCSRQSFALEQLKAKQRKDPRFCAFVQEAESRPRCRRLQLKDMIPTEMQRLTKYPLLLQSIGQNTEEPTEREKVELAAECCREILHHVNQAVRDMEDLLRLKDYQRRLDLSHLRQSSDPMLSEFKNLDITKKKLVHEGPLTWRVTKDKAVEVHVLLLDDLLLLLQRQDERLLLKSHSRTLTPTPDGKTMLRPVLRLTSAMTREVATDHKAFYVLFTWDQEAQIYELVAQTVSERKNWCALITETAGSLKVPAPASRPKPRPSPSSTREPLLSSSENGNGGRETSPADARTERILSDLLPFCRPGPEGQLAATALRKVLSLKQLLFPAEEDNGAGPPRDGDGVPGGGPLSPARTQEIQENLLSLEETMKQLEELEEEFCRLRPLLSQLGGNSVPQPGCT
Put plainly: mant-GTP fluorescence kinetics specificity assay, RhoA/p115RhoGEF. Conditions: peptide 20 μM, 0.5 μM GEF, 1 μM RhoA. It counts as biochemical. As to the method:
Figures represent the comparison of TRIPE32G and TRIPT16M/L17S inhibition efficiency on different GTPase/RhoGEF systems, using 1 μM GTPase and 0.5 μM GEF as follows:
In each assay, the peptides were used at a concentration of 20 μM, corresponding to a 40 fold molar excess of inhibitor versus GEF. All fluorescence kinetics assays were performed using 1 μM mant-GTP. Results are expressed as Relative Fluorescence Units (RFU) versus time. The reaction performed in the absence of GEF reflects the spontaneous exchange activity of the GTPase.
Radioactive [3H]-GDP dissociation assays were performed as described (Schmidt et al., 2002). […] Inhibition efficiency is expressed as the ratio between [3H]-GDP-bound RhoA at 15 and 0 min. Apparent inhibition constants (Kiapp) of TRIP-like peptides were determined from kobs values obtained at increasing peptide concentrations using the above fluorescence nucleotide exchange assay. Kiapp was calculated from the hyperbolic fit of kobs values as a function of the inhibitor concentration as described (Zeeh et al., 2006). TRIP-like peptide specificity was assayed using mant-GTP fluorescence kinetics (λex=360 nm, λem=460 nm) in a FLX800 Microplate Fluorescence Reader (BioTek Instruments). […] The exchange reaction was initiated by addition of 1 μM RhoA or RhoG and monitored for 10 min.

Assay [1] has as its system Tgat-expressing NIH3T3 cells. Put plainly: Focus formation assay of Tgat-expressing NIH3T3 cells. It counts as cell-based. The note with it: GST-tagged peptide stably co-expressed; after 3 weeks of culture. As to the method: FIG. 9A represents the focus formation assay of NIH3T3 cells, stably expressing GFP or GFP-Tgat, together with GST or GST-TRIPE32G.
FIG. 9B represents the quantification of three independent focus formation assays. The number of foci formed by Tgat/GST expressing cells was set to 100%.
NIH3T3 cells were maintained as described previously (Sirvent et al., 2007). Transient transfection experiments were performed using the Jet PEI reagent, according to the manufacturer's protocol (QBiogene Inc.). NIH3T3 cell lines stably expressing GFP-Tgat, GFP-TgatL190E, or GFP-Trio, with or without the GST-TRIP peptides, were generated as follows: the indicated retroviral constructs were transfected into BOSC packaging cells, using the Lipofectamine reagent (Invitrogen Inc.). Forty-eight hours after transfection, virus containing supernatants were collected and used to infect NIH3T3 cells. Infected cells were selected with 6 μg/mL puromycin and/or 1 mg/mL G418 and stable transfectants were pooled after selection. Tgat or TRIP mRNA levels in the different cell lines were monitored by RTPCR, and protein expression levels by Western blot analysis using a polyclonal anti-GFP antibody (Toney Pines Laboratories). […] After staining with Crystal Violet (1%), plates were photographed and foci were scored using the Metamorph software. […]

T1 sequence (Q86VW2 160-336 limits assumed): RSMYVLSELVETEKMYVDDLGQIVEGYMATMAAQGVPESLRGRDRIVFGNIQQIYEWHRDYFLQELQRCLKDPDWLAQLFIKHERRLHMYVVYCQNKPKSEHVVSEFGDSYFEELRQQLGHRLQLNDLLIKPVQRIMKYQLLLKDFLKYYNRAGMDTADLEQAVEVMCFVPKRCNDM

Turning to “AREGADGAICGYNLATLVMLGPSERVFCPLCEPCSSDIYELM [TRIPα]”, in the assay with PC12 cells, the “neurite retraction phenotype induced by Trio DH2-PH2” value is given as “reverting the neurite retraction phenotype”. Besides, the “activity on p63RhoGEF” value on p63RhoGEF was “not active”. As for “GST-TRIPE32G (AREGADGAICGYNLATLVMLGPSERVFCPLCGPCSSDIYELM; cysteine pairing not given here; also: GST fusion)”, the “effect on exchange activity of p115RhoGEF/RhoA” value in the assay with p115RhoGEF is “no effect”. For the same substance, in assay [1], the “foci in Tgat expressing cells” value is reported as “severely reduced”. For the substance GST-TRIPT16M/L17S, on p115RhoGEF, the “effect on exchange activity of p115RhoGEF/RhoA” value is given as “no effect”.
